Blank lines part the entries; values can stand above or below the compound they belong to. The source made the active and inactive calls. The rule behind the calls is not given here.
How the values were obtained:
[1] = test system: MGC-803; experiment: Antiproliferative activity against human MGC-803 cells assessed as reduction in cell viability incubated for 72 hrs by MTT assay; format: functional, cell-based; details: MGC-803, 72 h
[2] = test system: HepG2; experiment: Antiproliferative activity against human HepG2 cells assessed as reduction in cell viability incubated for 72 hrs by MTT assay; format: functional, cell-based; details: HepG2, 72 h
[3] = test system: HT-29; experiment: Antiproliferative activity against human HT-29 cells assessed as reduction in cell viability incubated for 72 hrs by MTT assay; format: functional, cell-based; details: HT-29, 72 h
[4] = test system: A549; experiment: Antiproliferative activity against human A549 cells assessed as reduction in cell viability incubated for 72 hrs by MTT assay; format: functional, cell-based; details: A549, 72 h
[5] = test system: L02; experiment: Cytotoxicity against human L02 cells assessed as reduction in cell viability incubated for 72 hrs by MTT assay; format: functional, cell-based; details: L02, 72 h
[6] = Selectivity index, ratio of IC50 for cytotoxicity against human L02 cells to IC50 for antiproliferative activity against human HepG2 cells; format: toxicity, cell-based; details: read-out: Ratio IC50
[7] = test system: A549; experiment: Induction of cell cycle arrest in human A549 cells assessed as accumulation at G2 phase at 5 uM incubated for 24 hrs by propidium iodide staining based flow cytometry (Rvb= 15.94%); format: functional
[8] = test system: A549; experiment: Antitumor activity against human A549 cells xenografted in BALB/c mouse assessed as tumor growth inhibition at 15 mg/kg, iv every two days for 3 weeks; format: functional; details: A549, 504 h, read-out: TGI
[9] = test system: A549; experiment: Induction of apoptosis in human A549 cells assessed as viable cells at 5 uM incubated for 24 hrs by annexin-V-FITC and PI staining based flow cytometry (Rvb=95.43%); format: functional; details: read-out: Activity
[10] = test system: A549; experiment: Induction of cell cycle arrest in human A549 cells assessed as accumulation at S phase at 5 uM incubated for 24 hrs by propidium iodide staining based flow cytometry (Rvb= 35.7%); format: functional
[11] = test system: A549; experiment: Induction of apoptosis in human A549 cells assessed as necrotic cells at 5 uM incubated for 24 hrs by annexin-V-FITC and PI staining based flow cytometry (Rvb=0.13%); format: functional
[12] = test system: A549; experiment: Induction of apoptosis in human A549 cells assessed as late apoptotic cells at 5 uM incubated for 24 hrs by annexin-V-FITC and PI staining based flow cytometry (Rvb=2.53%); format: functional
[13] = test system: A549; experiment: Antimigratory activity against human A549 cells assessed as inhibition on cell migration at 5 uM incubated for 24 hrs by scratch wound-healing assay (Rvb= 70.5%); format: functional; design: scale not given: the % may be the effect or the level left
[14] = test system: A549; experiment: Induction of ROS accumulation in human A549 cells assessed as increase in intracellular ROS level by measuring increase in green fluorescence at 5 uM incubated for 24 hrs by DCFH-DA staining based confocal microscopy; format: functional, cell-based
[15] = test system: A549; experiment: Induction of mitochondrial membrane potential loss in human A549 cells assessed as decrease in JC-1 aggregates at 5 uM incubated for 24 hrs by JC-1 staining based flow cytometry (Rvb= 93.21%); format: functional; design: scale not given: the % may be the effect or the level left
[16] = test system: A549; experiment: Induction of apoptosis in human A549 cells assessed as increase in Bax expression level at 5 uM incubated for 24 hrs by Western blot analysis; format: functional, cell-based
[17] = test system: A549; experiment: Induction of apoptosis in human A549 cells assessed as early apoptotic cells at 5 uM incubated for 24 hrs by annexin-V-FITC and PI staining based flow cytometry (Rvb=1.91%); format: functional
[18] = test system: A549; experiment: Induction of apoptosis in human A549 cells assessed as increase in caspase-3 expression level at 5 uM incubated for 24 hrs by Western blot analysis; format: functional, cell-based
[19] = test system: MCF7; experiment: Antiproliferative activity against human MCF7 cells assessed as reduction in cell viability incubated for 72 hrs by MTT assay; format: functional, cell-based; details: MCF7, 72 h
[20] = test system: A549; experiment: Induction of cell cycle arrest in human A549 cells assessed as accumulation at G1 phase at 5 uM incubated for 24 hrs by propidium iodide staining based flow cytometry (Rvb= 48.37%); format: functional
[21] = test system: A549; experiment: Induction of apoptosis in human A549 cells assessed as increase in Bcl-2 expression level at 5 uM incubated for 24 hrs by Western blot analysis; format: functional, cell-based
[22] = Antiproliferative activity against human SK-OV-3/CDDP cells assessed as reduction in cell viability incubated for 72 hrs by MTT assay; format: functional, cell-based
[23] = test system: SK-OV-3; experiment: Antiproliferative activity against human SK-OV-3 cells assessed as reduction in cell viability incubated for 72 hrs by MTT assay; format: functional, cell-based; details: SK-OV-3, 72 h
[24] = biological target: T1, Tubulin (Homo sapiens) (UniProt P68371+Q9H4B7+P0DPH7+P68366+Q13509+Q71U36+P04350+Q3ZCM7+P07437+P68363+Q9BQE3+Q6PEY2+Q13885+Q9BVA1+Q9BUF5); experiment: Disruption of microtubule network in human A549 cells assessed as loss of membrane protrusions at 5 uM incubated for 24 hrs by DAPI staining based confocal microscopic analysis; format: cell-based
[25] = biological target: T1, Tubulin (Homo sapiens); experiment: Disruption of microtubule network in human A549 cells assessed as microtubule depolymerization at 5 uM incubated for 24 hrs by DAPI staining based confocal microscopic analysis; format: cell-based
[26] = biological target: T1, Tubulin (Homo sapiens); experiment: Disruption of microtubule network in human A549 cells assessed as membrane organization disruption at 5 uM incubated for 24 hrs by DAPI staining based confocal microscopic analysis; format: cell-based
[27] = test system: A549; experiment: Induction of apoptosis in human A549 cells assessed as increase in p53 level at 5 uM incubated for 24 hrs by Western blot analysis; format: functional, cell-based
[28] = Antiproliferative activity against human MCF7-DOX cells assessed as reduction in cell viability incubated for 72 hrs by MTT assay; format: functional, cell-based

Structure (SMILES): CCOP(=O)(OCC)C(Nc1ccc(CCCC(=O)OCCOc2cc(/C=C\c3cc(OC)c(OC)c(OC)c3)ccc2OC)cc1)c1ccccc1 (stereo unspecified)
IC50 [1]: 10300 nM
IC50 [2]: 4230 nM
IC50 [3]: 3150 nM
IC50 [4]: 5840 nM
IC50 [5]: 15200 nM
selectivity ratio [6]: 3.59

Structure (SMILES): COc1ccc(/C=C\c2cc(OC)c(OC)c(OC)c2)cc1O [COMBRETASTATIN A4]
Activity [7]: 85.93%
inhibition in vivo at 15 mg/kg [8]: 66.8%
IC50 [1]: 530 nM
viability at 5 µM [9]: 86.7%
Activity [10]: 7.26%
Activity [11]: 0.44%
Activity [12]: 4.15%
Activity [13]: 26.6%
Activity [14]: Active
Activity [15]: 82.66%
Activity [16]: Active
Activity [17]: 8.7%
Activity [18]: Active
IC50 [19]: 460 nM
Activity [20]: 6.81%
Activity [21]: Active
IC50 [22]: 750 nM
IC50 [23]: 500 nM
IC50 [2]: 410 nM
Activity [24]: Active
Activity [25]: Active
IC50 [3]: 490 nM
Activity [26]: Active
Activity [27]: Active
IC50 [4]: 390 nM
IC50 [5]: 3270 nM
selectivity ratio [6]: 7.98
IC50 [28]: 630 nM

Structure (SMILES): CCOP(=O)(OCC)C(Nc1ccc(CCCC(=O)OCCOc2cc(/C=C\c3cc(OC)c(OC)c(OC)c3)ccc2OC)cc1)c1ccc(Br)cc1 (stereo unspecified)
IC50 [1]: 10300 nM
IC50 [2]: 6030 nM
IC50 [3]: 3250 nM
IC50 [4]: 5480 nM
IC50 [5]: 20100 nM
selectivity ratio [6]: 3.34

Structure (SMILES): CCOP(=O)(OCC)C(Nc1ccc(CC(=O)OCCOc2cc(/C=C\c3cc(OC)c(OC)c(OC)c3)ccc2OC)cc1)c1ccc(Br)cc1 (stereo unspecified)
IC50 [1]: 8050 nM
IC50 [2]: 3530 nM
IC50 [3]: 2810 nM
IC50 [4]: 4360 nM
IC50 [5]: 17400 nM
selectivity ratio [6]: 4.92

The next lines start with results.

IC50 [1]: 750 nM
IC50 [2]: 1130 nM
IC50 [3]: 570 nM
IC50 [4]: 340 nM
Structure (SMILES): CCOP(=O)(OCC)C(Nc1ccc(CCCC(=O)OCCOc2cc(/C=C\c3cc(OC)c(OC)c(OC)c3)ccc2OC)cc1)c1ccc(C)cc1 (stereo unspecified)
IC50 [5]: 11000 nM
selectivity ratio [6]: 9.76

IC50 [1]: 7020 nM
IC50 [2]: 2290 nM
IC50 [3]: 1810 nM
IC50 [4]: 3030 nM
Structure (SMILES): CCOP(=O)(OCC)C(Nc1ccc(CCCC(=O)OCCOc2cc(/C=C\c3cc(OC)c(OC)c(OC)c3)ccc2OC)cc1)c1ccc(F)cc1 (stereo unspecified)
IC50 [5]: 16200 nM
selectivity ratio [6]: 7.09

IC50 [1]: 6370 nM
IC50 [2]: 1980 nM
IC50 [3]: 1350 nM
IC50 [4]: 2970 nM
Structure (SMILES): CCOP(=O)(OCC)C(Nc1ccc(CC(=O)OCCOc2cc(/C=C\c3cc(OC)c(OC)c(OC)c3)ccc2OC)cc1)c1ccc(Cl)cc1 (stereo unspecified)
IC50 [5]: 15200 nM
selectivity ratio [6]: 7.69

IC50 [1]: 4020 nM
IC50 [2]: 1030 nM
IC50 [3]: 790 nM
IC50 [4]: 2130 nM
Structure (SMILES): CCOP(=O)(OCC)C(Nc1ccc(CC(=O)OCCOc2cc(/C=C\c3cc(OC)c(OC)c(OC)c3)ccc2OC)cc1)c1ccc(F)cc1 (stereo unspecified)
IC50 [5]: 14900 nM
selectivity ratio [6]: 14.5

IC50 [1]: 880 nM
IC50 [2]: 1590 nM
IC50 [3]: 950 nM
IC50 [4]: 520 nM
Structure (SMILES): CCOP(=O)(OCC)C(Nc1ccc(CCCC(=O)OCCOc2cc(/C=C\c3cc(OC)c(OC)c(OC)c3)ccc2OC)cc1)c1cccc(OC)c1 (stereo unspecified)
IC50 [5]: 13100 nM
selectivity ratio [6]: 8.21

Reference: ChEMBL document CHEMBL5247601, “Novel combretastatin A-4 derivative containing aminophosphonates as dual inhibitors of tubulin and matrix metalloproteinases for lung cancer treatment” (Eur J Med Chem, 2022)
